Read-outs that look alike come from different tables or passages of the source.
Key:
[1] = Solubility experiments: vapor pressure of blowing agent in polyol in a pressure vessel; type: physicochemical
Description: The vapor pressure of a foam blowing agent in polyurethane materials was evaluated in an experimental apparatus consisting of a pressure vessel with magnetic stirring, a pressure transducer and a temperature transducer. The temperature inside the vessel was controlled within 0.1° C. and the pressure controlled to within 0.1%.
Into the pressure vessel (volume about 100 ml), 50 g of polyol was loaded. The vessel was then placed under vacuum to remove air. The change of pressure in the metal cylinder was monitored to ensure that there were no leaks. The blowing agent was introduced into the vessel by the use of a specially designed gas syringe. The amount of blowing agent loaded was verified by measuring the weight of the syringe before and after introduction. The temperature of the vessel was maintained at 50° C. (above the boiling point of the blowing agents being tested) and the speed of the shaker was maintained at 300 rpm. The vapor pressure of the blowing agent was recorded as a function of the time. Sufficient time was allowed for the system to reach equilibrium. After reaching equilibrium, the amount of blowing agent dissolved in the polyol was calculated as the difference between the added blowing agent […] and the blowing agent present in the gas phase of the vessel.
Then another small amount of blowing agent was added in the vessel. The procedure was repeated several times until the pressure in the vessel was equal to the liquid-gas equilibrium vapor pressure of the blowing agent at this temperature (maximum attainable pressure at temperatures below the critical temperature of the blowing agent).

[2] = AMES testing (genotoxicity); type: cell-based; conditions: trans isomer of HCFO-1233zd compared with the cis isomer
[3] = known to the people skilled in the art; cited from earlier work

FC(F)(F)/C=C/Cl [E-HCFO-1233zd]
area between the polyether polyol and polyester polyol curves (range of solubilities) ([1]; compared with HCFC141b and HFC245fa, 50° C.): significantly larger
solubility relative to current blowing agents ([1]; polyether polyol and polyester polyol, 50° C.): solubility comparable to current blowing agents
solubility curves (vapor pressure versus part of blowing agent per 100 part of polyol by weight) ([1]; polyether polyol and polyester polyol, 50° C., FIG. 1): between those for HFC245fa and HCFC141b
genotoxicity in AMES testing [2]: significantly lower genotoxicity

FC(F)(F)/C=C/Cl [HCFO-1233zd, trifluoro-monochloropropenes]
solubility in polyols ([1]; different ratios of polyether polyols and polyester polyols, benchmarked against HCFC141b and HFC245fa): falls in between HFC245fa and HCFC141b

FC(F)CC(F)(F)F [HFC245fa]
solubility in polyols [3]: relatively less soluble

Reference: US20120145955A1, “COMPOSITION OF HCFO-1233zd AND POLYOL BLENDS FOR USE IN POLYURETHANE FOAM” (Arkema Inc., priority 2009, published 2012)
